Experiments:
Assay type in all cases: biochemical
PDE4D2 = PDE4D2 (Homo sapiens, UniProt Q08499); experiment: PDE4 inhibitory activity assay (FAM-cAMP enzymatic reaction), PDE4D2
Procedure: (§1) The compounds of the present disclosure were tested for their inhibitory activity (IC50 value) against PDE4A1A, PDE4B1, and PDE4D2.
(§2) Positive compound: Trequinsin (Sigma, Cat No. T20S7).
(§3) Instrument: Wallac Victor Muti-lable counter (Pekin Elmer) Steps of assay:
(§4) PDE enzymatic reaction; • 1) PDE was dissolved in 1× reaction solution to prepare 2× enzyme solution; • 2) FAM-cAMP was dissolved in 1× reaction solution to prepare 2× substrate solution; • 3) Corresponding volume of the compound in DMSO was transferred to the reaction plate through Echo 550; • 4) 2× enzyme solution was added into the corresponding wells of the reaction plate and incubated with the compound solution for 15 minutes at room temperature; • 5) 2× substrate solution was added into the corresponding well of the reaction plate to initiate the reaction; • 6) After the reaction plate was incubated at room temperature for 30 min, the reaction was terminated by adding reaction stopping solution. The reaction plate was incubated at room temperature for another 60 minutes;
(§5) Inhibition rates were calculated with Excel; and IC50 for each compound was calculated with Graphpad prism.

PDE4A1A = target: T1, PDE4A1A (Homo sapiens, UniProt P27815); experiment: PDE4 inhibitory activity assay (FAM-cAMP enzymatic reaction), PDE4A1A
T1 construct: purchased BPS 60040
T1 sequence (P27815 1-647 isoform P27815-4): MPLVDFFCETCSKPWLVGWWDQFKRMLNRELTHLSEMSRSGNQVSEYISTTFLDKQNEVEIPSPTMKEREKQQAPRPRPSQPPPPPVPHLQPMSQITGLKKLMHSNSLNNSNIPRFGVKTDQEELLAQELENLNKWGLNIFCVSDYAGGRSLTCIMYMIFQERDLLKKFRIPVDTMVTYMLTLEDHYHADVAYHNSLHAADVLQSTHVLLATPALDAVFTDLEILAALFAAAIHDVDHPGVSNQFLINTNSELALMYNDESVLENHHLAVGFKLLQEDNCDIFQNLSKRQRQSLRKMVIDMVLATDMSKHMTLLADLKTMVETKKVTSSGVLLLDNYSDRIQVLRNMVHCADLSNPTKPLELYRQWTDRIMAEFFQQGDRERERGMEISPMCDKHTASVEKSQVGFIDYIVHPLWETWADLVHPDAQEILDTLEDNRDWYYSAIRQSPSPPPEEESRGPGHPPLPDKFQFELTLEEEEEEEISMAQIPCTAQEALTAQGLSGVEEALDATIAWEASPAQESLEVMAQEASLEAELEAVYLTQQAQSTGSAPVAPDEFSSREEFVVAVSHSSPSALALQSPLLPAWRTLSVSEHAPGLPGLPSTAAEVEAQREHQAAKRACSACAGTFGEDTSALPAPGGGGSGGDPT
Procedure: as §1, §2, §3, §4, §5

PDE4B1 = target: T2, PDE4B1 (Homo sapiens, UniProt Q07343); experiment: PDE4 inhibitory activity assay (FAM-cAMP enzymatic reaction), PDE4B1
T2 construct: purchased BPS 60041
T2 sequence (Q07343 whole entry): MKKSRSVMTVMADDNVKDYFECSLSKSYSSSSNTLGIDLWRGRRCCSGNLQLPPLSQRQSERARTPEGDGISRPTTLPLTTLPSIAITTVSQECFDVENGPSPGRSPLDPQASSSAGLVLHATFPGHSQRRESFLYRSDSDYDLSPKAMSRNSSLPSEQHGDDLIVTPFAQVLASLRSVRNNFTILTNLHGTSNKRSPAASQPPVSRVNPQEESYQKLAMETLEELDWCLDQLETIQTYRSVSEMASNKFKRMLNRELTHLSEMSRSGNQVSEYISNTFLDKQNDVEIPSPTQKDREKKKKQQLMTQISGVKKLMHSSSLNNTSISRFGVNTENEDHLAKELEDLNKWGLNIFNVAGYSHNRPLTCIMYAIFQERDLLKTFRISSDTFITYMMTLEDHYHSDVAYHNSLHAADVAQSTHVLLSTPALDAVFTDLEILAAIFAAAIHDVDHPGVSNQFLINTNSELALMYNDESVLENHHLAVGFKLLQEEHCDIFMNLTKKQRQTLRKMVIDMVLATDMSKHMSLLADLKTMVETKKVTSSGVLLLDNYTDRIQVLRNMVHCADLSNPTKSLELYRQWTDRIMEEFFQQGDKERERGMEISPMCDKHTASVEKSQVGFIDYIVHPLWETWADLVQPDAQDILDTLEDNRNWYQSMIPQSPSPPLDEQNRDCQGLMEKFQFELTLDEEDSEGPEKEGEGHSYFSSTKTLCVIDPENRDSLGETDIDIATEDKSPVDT
Procedure: as §1, §2, §3, §4, §5

[1] = compared with Apremilast and Example 11 of WO2018036470 (WX011)

Sequence of PDE4D2 (Q08499 303-809): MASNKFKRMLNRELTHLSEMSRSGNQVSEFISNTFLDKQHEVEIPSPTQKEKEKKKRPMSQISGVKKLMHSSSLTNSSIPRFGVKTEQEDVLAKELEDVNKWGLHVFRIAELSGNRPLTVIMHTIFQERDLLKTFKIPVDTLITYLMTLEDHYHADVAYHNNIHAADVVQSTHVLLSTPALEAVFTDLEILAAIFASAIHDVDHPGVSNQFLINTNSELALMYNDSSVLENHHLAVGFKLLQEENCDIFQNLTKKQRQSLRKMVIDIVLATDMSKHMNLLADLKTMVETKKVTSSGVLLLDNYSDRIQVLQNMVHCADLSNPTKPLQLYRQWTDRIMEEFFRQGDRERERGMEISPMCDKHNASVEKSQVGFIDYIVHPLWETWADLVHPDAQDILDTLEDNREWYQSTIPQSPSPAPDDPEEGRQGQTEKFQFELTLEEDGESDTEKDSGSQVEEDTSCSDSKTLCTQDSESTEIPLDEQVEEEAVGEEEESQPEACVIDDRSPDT

| SMILES | PDE4 D2 inhibitory effect at 20 nM (PDE4D2) | PDE4 A1 inhibitory effect at 20 nM (PDE4A1A) | PDE4 B1 inhibitory effect at 20 nM (PDE4B1) | inhibitory activity against PDE4D2 compared with Apremilast and WX011 (PDE4D2; [1]) | IC50 (PDE4D2; read-out: PDE4 D2 inhibitory activity (IC50 value)) | inhibitory activity against PDE4A1A compared with Apremilast and WX011 (PDE4A1A; [1]) | inhibitory activity against PDE4B1 compared with Apremilast and WX011 (PDE4B1; [1]) |
| --- | --- | --- | --- | --- | --- | --- | --- |
| CCOc1nc([C@@H](CS(C)(=O)=O)N2C(=O)c3csc(NC(=O)CN(C)C)c3C2=O)ccc1OC [Ex. 228, (S)-2-(dimethylamino)-N-(5-(1-(6-ethoxy-5-methoxypyridin-2-yl)-2-(methylsulfonyl)ethyl)-4,6-dioxo-5,6-dihydro-4H-thieno[3,4-c]pyrrol-1-yl)acetamide] | + | + | + |  |  |  |  |
| CCOc1nc([C@H](CS(C)(=O)=O)n2c(=O)n(C)c3cc(-c4ccc(F)cc4)ccc32)ccc1OC [Ex. 138, (R)-1-(1-(6-ethoxy-5-methoxypyridin-2-yl)-2-(methylsulfonyl)ethyl)-3-methyl-5-(4-fluorophenyl)-1H-benzo[d]imidazol-2(3H)-one] | + | + | + |  |  |  |  |
| CCOc1nc([C@@H](CS(C)(=O)=O)N2C(=O)c3csc(NC(=O)CN(CC)CC)c3C2=O)ccc1OC [Ex. 229, (S)-2-(diethylamino)-N-(5-(1-(6-ethoxy-5-methoxypyridin-2-yl)-2-(methylsulfonyl)ethyl)-4,6-dioxo-5,6-dihydro-4H-thieno[3,4-c]pyrrol-1-yl)acetamide] | + | + | + |  |  |  |  |
| CCOc1nc([C@@H](CS(C)(=O)=O)n2c(=O)[nH]c3c(C)c(-c4ccccc4OC)cnc32)ccc1OC [Ex. 12, (S)-3-(1-(6-ethoxy-5-methoxypyridin-2-yl)-2-(methylsulfonyl)ethyl)-6-(2-methoxyphenyl)-7-methyl-1H-imidazo[4,5-b]pyridin-2(3H)-one] |  |  |  | significantly enhanced inhibitory activity | 3.2 nM | significantly enhanced inhibitory activity | significantly enhanced inhibitory activity |
| CCOc1ccccc1-c1ccc2c(c1)[nH]c(=O)n2[C@H](CS(C)(=O)=O)c1ccc(OC)c(OCC)n1 [Ex. 192, (S)-1-(1-(6-ethoxy-5-methoxypyridin-2-yl)-2-(methylsulfonyl)ethyl)-5-(2-ethoxyphenyl)-1H-benzo[d]imidazol-2(3H)-one] | + | + | + |  |  |  |  |
| CCOc1nc([C@H](CS(C)(=O)=O)n2c(=O)[nH]c3c(C)c(-c4c(F)cccc4F)cnc32)ccc1OC [Ex. 24, (R)-6-(2,6-difluorophenyl)-3-(1-(6-ethoxy-5-methoxypyridin-2-yl)-2-(methylsulfonyl)ethyl)-7-methyl-1H-imidazo[4,5-b]pyridin-2(3H)-one] | − | − | − |  |  |  |  |
| CCOc1nc([C@@H](CS(C)(=O)=O)n2c(=O)[nH]c3cc(-c4cccc(C)c4F)ccc32)ccc1OC [Ex. 177, (S)-5-(2-fluoro-3-methylphenyl)-1-(1-(6-ethoxy-5-methoxypyridin-2-yl)-2-(methylsulfonyl)ethyl)-1H-benzo[d]imidazol-2(3H)-one] | + | + | + |  |  |  |  |
| CCOc1nc([C@@H](CS(C)(=O)=O)n2c(=O)n(C)c3cc(-c4cc(F)c(F)cc4F)ccc32)ccc1OC [Ex. 159, (S)-5-(2,4,5-trifluorophenyl)-1-(1-(6-ethoxy-5-methoxypyridin-2-yl)-2-(methylsulfonyl)ethyl)-3-methyl-1H-benzo[d]imidazol-2(3H)-one] | + | + | + |  |  |  |  |
| CCOc1nc([C@@H](CS(C)(=O)=O)n2c(=O)[nH]c3c(C)c(-c4cc(F)ccc4OC)cnc32)ccc1OC [Ex. 44, (S)-6-(5-fluoro-2-methoxyphenyl)-3-(1-(6-ethoxy-5-methoxypyridin-2-yl)-2-(methylsulfonyl)ethyl)-7-methyl-1H-imidazo[4,5-b]pyridin-2(3H)-one] | + | + | + |  |  |  |  |
| CCOc1nc([C@@H](CS(C)(=O)=O)n2c(=O)[nH]c3cc(-c4cc(OC)ccc4F)ccc32)ccc1OC [Ex. 181, (S)-5-(2-fluoro-5-methoxyphenyl)-1-(1-(6-ethoxy-5-methoxypyridin-2-yl)-2-(methylsulfonyl)ethyl)-1H-benzo[d]imidazol-2(3H)-one] | + | + | + |  |  |  |  |
| CCOc1nc([C@@H](CS(C)(=O)=O)n2c(=O)n(CCOC)c3c(C)c(-c4ccccn4)cnc32)ccc1OC [Ex. 20, (S)-3-(1-(6-ethoxy-5-methoxypyridin-2-yl)-2-(methylsulfonyl)ethyl)-1-(2-methoxyethyl)-7-methyl-6-(pyridin-2-yl)-1H-imidazo[4,5-b]pyridin-2(3H)-one] | + | + | + |  |  |  |  |
| CCOc1nc([C@@H](CS(C)(=O)=O)n2c(=O)[nH]c3c(C)c(-c4ccccc4C#N)cnc32)ccc1OC [Ex. 15, (S)-2-(3-(1-(6-ethoxy-5-methoxypyridin-2-yl)-2-(methylsulfonyl)ethyl)-7-methyl-2-oxo-2,3-dihydro-1H-imidazo[4,5-b]pyridin-6-yl)benzonitrile] | − | − | − |  |  |  |  |
| CCOc1nc([C@H](CS(C)(=O)=O)n2c(=O)[nH]c3c(C)c(-c4ccc(F)cc4)cnc32)ccc1OC [Ex. 7, (R)-3-(1-(6-ethoxy-5-methoxypyridin-2-yl)-2-(methylsulfonyl)ethyl)-6-(4-fluorophenyl)-7-methyl-1H-imidazo[4,5-b]pyridin-2(3H)-one] | − | − | − |  |  |  |  |
| CCOc1nc([C@@H](CS(C)(=O)=O)n2c(=O)[nH]c3c(C)c(-c4cc(OC)ccc4F)cnc32)ccc1OC [Ex. 41, (S)-6-(2-fluoro-5-methoxyphenyl)-3-(1-(6-ethoxy-5-methoxypyridin-2-yl)-2-(methylsulfonyl)ethyl)-7-methyl-1H-imidazo[4,5-b]pyridin-2(3H)-one] | + | + | + |  |  |  |  |
| CCOc1nc([C@@H](CS(C)(=O)=O)n2c(=O)n(C)c3cc(-c4cccc(F)c4C)ccc32)ccc1OC [Ex. 174, (S)-5-(3-fluoro-2-methylphenyl)-1-(1-(6-ethoxy-5-methoxypyridin-2-yl)-2-(methylsulfonyl)ethyl)-3-methyl-1H-benzo[d]imidazol-2(3H)-one] | + | + | + |  |  |  |  |
| CCOc1nc([C@@H](CS(C)(=O)=O)n2c(=O)[nH]c3c(C)c(-c4cc(C)ccc4C)cnc32)ccc1OC [Ex. 32, (S)-6-(2,5-dimethylphenyl)-3-(1-(6-ethoxy-5-methoxypyridin-2-yl)-2-(methylsulfonyl)ethyl)-7-methyl-1H-imidazo[4,5-b]pyridin-2(3H)-one] | + | + | + |  |  |  |  |
| CCOc1nc([C@@H](CS(C)(=O)=O)n2c(=O)n(C)c3cc(-c4cc(F)ccc4OC)ccc32)ccc1OC [Ex. 187, (S)-5-(5-fluoro-2-methoxyphenyl)-1-(1-(6-ethoxy-5-methoxypyridin-2-yl)-2-(methylsulfonyl)ethyl)-3-methyl-1H-benzo[d]imidazol-2(3H)-one] | + | + | + |  |  |  |  |
| CCOc1nc([C@@H](CS(C)(=O)=O)n2c(=O)n(C)c3cc(-c4c(F)cccc4OC)ccc32)ccc1OC [Ex. 191, (S)-5-(6-fluoro-2-methoxyphenyl)-1-(1-(6-ethoxy-5-methoxypyridin-2-yl)-2-(methylsulfonyl)ethyl)-3-methyl-1H-benzo[d]imidazol-2(3H)-one] | + | + | + |  |  |  |  |
| CCOc1nc([C@@H](CS(C)(=O)=O)n2c(=O)[nH]c3cc(-c4ccccc4C(F)(F)F)ccc32)ccc1OC [Ex. 146, (S)-1-(1-(6-ethoxy-5-methoxypyridin-2-yl)-2-(methylsulfonyl)ethyl)-5-(2-(trifluoromethyl)phenyl)-1H-benzo[d]imidazol-2(3H)-one] | + | + | + |  |  |  |  |
| CCOc1nc([C@@H](CS(C)(=O)=O)n2c(=O)n(C)c3cc(-c4ccc(OC)cc4F)ccc32)ccc1OC [Ex. 185, (S)-5-(2-fluoro-4-methoxyphenyl)-1-(1-(6-ethoxy-5-methoxypyridin-2-yl)-2-(methylsulfonyl)ethyl)-3-methyl-1H-benzo[d]imidazol-2(3H)-one] | + | + | + |  |  |  |  |

Source: patent US20230141101A1, “PDE4 INHIBITOR COMPOUND AND MEDICAL USE THEREOF” (Suzhou Longbotai Pharmaceuticals Co., Ltd., priority 2020, published 2023)
